Values quoted from earlier work, collected in patent US20210267955A1, “LOW DOSE ORAL PHARMACEUTICAL COMPOSITION OF PIRFENIDONE OR SALT THEREOF” (Zenvision Pharma LLP, priority 2018, published 2021).

Conditions: methanol, ethyl alcohol, acetone, chloroform vs water and 1.0 N hydrochloric acid

Cc1ccc(=O)n(-c2ccccc2)c1 [Pirfenidone, 5-methyl-1-phenyl-2-(1H)-pyridone]
solubility (qualitative): more soluble in methanol, ethyl alcohol, acetone and chloroform than in water and 1.0 N hydrochloric acid
